Experimental data as given in US6380165B1, “Immunological advanced glycation endproduct crosslink” (The Picower Institute for Medical Research, priority 1997, dated 2002).
Where a SMILES comes first, the peptide text is derived from it. The star is where a group is joined. Cbz = O=C(OCc1ccccc1)*

Experiments:
[1] = system: polyclonal anti-AGE antibody “RU”; test: anti-AGE antibody-based competitive ELISA to measure AGE content (AGE-BSA as absorbed antigen); type: binding, rabbit; conditions: FIG. 1
Excerpt: For comparison purposes, the reactivity of FFI, CML, AFGP, pentosidine and cyclic pentosidine, and ligands with related epitope structure, such as N^α-Z-arg-lys, N^α-Z-arg-lys-AP, an imidazolium adduct, a pyrimidinium adduct, histidine, and lys-his, were studied. ELISA competition curves for the polyclonal anti-AGE antibody “RU” followed the methods described by Makita et al. (J. Biol. Chem. 267:1992, 1992). Assays employed glucose-derived, AGE-BSA as the absorbed antigen. FFI: 4-furanyl-2-furoyl-1H-imidazole (Ponger et al,. Proc. Natl. Acad Sci. U.S.A. 81:2684, 1984), CML: carboxy-methyllysine (Ahmed et al., J. Biol. Chem. 261:4889, 1986), AFGP: 1-alkyl-2-formyl-3,4-diglycosylpyrrole (Farmar et al., J. Org. Chem. 53:2346, 1988), PY: pyrraline (Njoroge et al., Carbohydrate Res. 167:211, 1987), P: pentosidine (Sell and Monnier, J. Biol. Chem. 264:21597, 1989), CP: cyclic pentosidine (CP) (Al-Abed et al., Bioorg. Med. Chem. Lett. 5:2929, 1995), AL: N^α-Z-arg-lys (AL), ALAP: N^α-Z-arg-lys-AP, H: histidine, LH: lys-his, PA: pyrimidinium adduct (Al-Abed et al., Bioorg. Med. Chem. Lett. 6:1577, 1996), and IA: imldazolium adduct (Brinkmann et al., J. Chem. Soc. Perkin Trans.
This example illustrates the discovery and isolation of the AGE of formula I. The dipeptide N^α-Z-arg-lys was selected as a target, because a close association of the arginine and lysine residues provides a significant proximity effect that promotes crosslink formation. Moreover, a synthetic strategy employing an arg-lys dipeptide was used successfully in the past to isolate a cyclic pentosidine in a high yield (Beisswenger et al., Diabetes 44:824, 1995). N^α-Z-arg-lys (13 mmoles) was incubated together with 10 equivalents of glucose in 0.2 M phosphate buffer (pH 7.4) for five weeks at 37° C. At least 25 distinct reaction products were identified upon fractionation of this mixture by reverse-phase HPLC. Each fraction was isolated, concentrated, and analyzed for its reactivity with anti-AGE antibody by ELISA (Makita et al., J. Biol Chem. 267:1992, 1992). Briefly, HPLC fractions and purified compounds were analyzed by an AGE-specific ELISA following methods described previously (Makita et al., J. Biol. Chem. 267:1992, 1992). This ELISA employed a polyclonal anti-AGE antibody raised by hyperimmunization against a heavily AGE-crosslinked preparation of ribonuclease. Total IgG was prepared by protein-G affinity chromatography and the ribonuclease backbone specificities removed by immunoabsorption. For assaying AGE immunoreactivity, 96-well round bottom microtitre plates (EIA/RIA plate, Costar, Cambridge, Mass.) first were coated with AGE-BSA (3 mg/ml, dissolved in 0.1 M sodium bicarbonate, pH 9.6) by incubation overnight at 4° C. After washing, the unbound sites were blocked with SuperBlock™ following the manufacturer's recommendations (Pierce, Rockford, Ill.). After washing, dilutions of test antigen, together with anti-AGE IgG, were added and the plates incubated at room temperature for 1 hr. The plates then were washed again and incubated with a secondary antibody (alkaline phosphatase-conjugated anti-rabbit IgG) at 37° C. for 1 hr. The unbound antibodies were removed by extensive washing and bound antibodies were detected by incubation with-nitrophenyl phosphate (pNPP) substrate for 30-60 min, and recording the optical density at 405 nm by an ELISA reader (EL309, Bio-Tek Instruments Inc., Burlington, Vt.). Results were expressed as B/B0, calculated as [experimental OD—background OD (i.e. no antibody)]/[total OD (i.e. no competitor)—background OD].

[2] = acid lability of the isolated crosslink; type: physicochemical
AGE formation = test: formation of the ALI crosslink from glucose and Nα-Z-arg-lys, inhibition of forming
Excerpt: This example illustrates a proposed mechanism of the AGE formation (FIG. 2). First, dehydration of the lysine-derived AP (which has been determined to form in 18% yield under these reaction conditions) gives an obligate, AP-dione reactive intermediate. Reversible addition of the guanidine moiety to the dicarbonyl yields the 2-amino-4,5-dihydroxyimidazole adduct, which then undergoes dehydration to deliver the stable cyclic ALI.

Molecule | crossreactivity / reactivity with the RU anti-AGE antibody [1] | further results
1-alkyl-2-formyl-3,4-diglycosylpyrrole [AFGP] | no detectable crossreactivity | 
4-furanyl-2-furoyl-1H-imidazole [FFI] | no detectable crossreactivity | 
N=C(N)NCCC[C@H](NC(=O)OCc1ccccc1)C(=O)N[C@@H](CCCCN)C(=O)O [AL, N^α-Z-arg-lys] (Cbz-Arg-Lys-OH) | no detectable crossreactivity | 
O=C(NC1CCCNC2=NC(=CNCCCCC(C(=O)O)NC1=O)C(CC(O)CO)=N2)OCc1ccccc1 (stereo not drawn) [ALI, Arg-Lys-Imidazole] |  | acid stability of the crosslink [2]: acid-labile
N[C@@H](Cc1c[nH]cn1)C(=O)O [H, histidine] | no detectable crossreactivity | 
NCCCC[C@H](N)C(=O)N[C@@H](Cc1cnc[nH]1)C(=O)O [LH, lys-his] | no detectable crossreactivity | 
N[C@@H](CCCCn1c(C=O)ccc1CO)C(=O)O [PY, pyrraline] | no detectable crossreactivity | 
N=C(N)NN [aminoguanidine] |  | inhibition of crosslink (ALI) formation (AGE formation): inhibited from forming
N^α-Z-arg-lys-AP [ALAP] | no detectable crossreactivity | 
cyclic pentosidine [CP] | no detectable crossreactivity | 
pentosidine | no detectable crossreactivity | 
